We go through five compounds from PMC3686309 (ACS medicinal chemistry letters, 2013).

Data set [1] is described as follows: Cytotoxicity against WI-38 fibroblast cells. It is filed as cell-based, human. Particulars: human, WI-38 fibroblast cells.
Another data set has as its system WI-38 fibroblast cells. Briefly: Cytotoxicity against WI-38 fibroblast cells. The class given is cell-based, human.
A further data set concerns the target WT IDH1 (Homo sapiens, UniProt O75874). Briefly: WT IDH1 enzyme inhibition. The class given is biochemical. Particulars: at 100 μM.

Structures are written as SMILES. Bounds are passed on as bounds.

Sequence of WT IDH1 (O75874 whole entry): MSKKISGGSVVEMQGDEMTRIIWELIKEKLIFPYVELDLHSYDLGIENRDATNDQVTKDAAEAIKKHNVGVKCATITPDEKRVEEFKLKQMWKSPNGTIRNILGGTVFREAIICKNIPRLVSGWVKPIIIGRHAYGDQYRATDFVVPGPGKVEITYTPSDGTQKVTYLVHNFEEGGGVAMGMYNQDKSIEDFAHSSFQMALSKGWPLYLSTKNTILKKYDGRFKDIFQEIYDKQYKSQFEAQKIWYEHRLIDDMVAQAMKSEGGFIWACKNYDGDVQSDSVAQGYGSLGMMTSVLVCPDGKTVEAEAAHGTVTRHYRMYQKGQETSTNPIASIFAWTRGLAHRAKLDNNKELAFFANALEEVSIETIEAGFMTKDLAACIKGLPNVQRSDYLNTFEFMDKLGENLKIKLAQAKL

Consider `Cc1cc(Cc2ccccc2)n(O)c(=O)c1` [Compound 2], for which the concentration for a half-maximal effect (EC50) in data set [1] is more than 50 µM. Also, the “cytotoxicity against human cells (in words)” value in the data set with WI-38 fibroblast cells was “do not have cytotoxicity”. `Cc1cc(Cc2ccc(O)cc2)n(O)c(=O)c1` [Compound 3] registered an EC50 in data set [1] of more than 50 µM. Moreover, the “cytotoxicity against human cells (in words)” value in the data set on WI-38 fibroblast cells was “do not have cytotoxicity”. Turning to `O=c1cccc(Cc2ccccc2)n1O` [Compound 4], the EC50 in data set [1] is more than 50 µM. For `CC(C)c1cc(Cc2ccccc2)n(O)c(=O)c1` [Compound 5], the EC50 in data set [1] was more than 50 µM. Take `O=c1ccc(Cc2ccccc2)cn1O` [Compound 1]: the “activity against WT IDH1” value at WT IDH1 is given as “no activity”.
